Converted amounts (≈) assume the structure as drawn. Where two headings read alike, the source gives them in different places.
How the values were obtained:
Experiment in all cases: Antibiotic activity (MIC), Table 1
Format in all cases: cell-based
[1] = test system: P. aeruginosa RST-1 (AAC(3)-III)
B. subtilis ATCC 6633 = test system: B. subtilis ATCC 6633
E. coli ML 1410 = test system: E. coli ML 1410
S. faecalis Imanari = test system: S. faecalis Imanari
S. aureus 209P JC-1 = test system: S. aureus 209P JC-1
P. maltophilia IID 1275 = test system: P. maltophilia IID 1275
S. marcescens NHL = test system: S. marcescens NHL
E. cloacae IID 977 = test system: E. cloacae IID 977
P. inconstans 93 = test system: P. inconstans 93
P. aeruginosa NCTC 10490 = test system: P. aeruginosa NCTC 10490
[2] = test system: P. aeruginosa GN315 (AAC(6')-IV)
P. vulgaris IID 874 = test system: P. vulgaris IID 874
[3] = test system: K. pneumoniae 4687 (AAD(2"))
E. coli NIHJ JC-2 = test system: E. coli NIHJ JC-2
P. cepacia 11D 1340 = test system: P. cepacia 11D 1340
E. coli JR 88 (AAC(3)-I) = test system: E. coli JR 88 (AAC(3)-I)
P. putida IID 5121 = test system: P. putida IID 5121
[4] = test system: P. aerugionosa TK-157 (APH(3')-II)
K. pneumoniae PCI 602 = test system: K. pneumoniae PCI 602
[5] = test system: P. aeruginosa 99 (AAC(3)-I)
[6] = test system: P. inconstans GN1554 (AAC(2'))
E. coli R176 (AAC(3)-II) = test system: E. coli R176 (AAC(3)-II)
[7] = test system: P. aeruginosa TI 13 (APH(3')-I)
[8] = test system: E. coli ML 1410 R83 (APH(3')-II); details: Escherichia coli
[9] = test system: E. coli ML 1410 R102 (AAD(2")); details: Escherichia coli
[10] = test system: E. coli ML 1410 R82 (AAD(3")); details: Escherichia coli
[11] = test system: E. coli ML 1410 R81 (APH(3')-I); details: Escherichia coli
[12] = Pseudomonas aeruginosa, read-out: MIC
[13] = Bacillus subtilis, ATCC6633, B. subtilis ATCC 6633, read-out: MIC
[14] = Escherichia coli, ML1410, E. coli ML 1410, read-out: MIC
[15] = Enterococcus faecalis, read-out: MIC
[16] = Staphylococcus aureus, 209P, read-out: MIC
[17] = Stenotrophomonas maltophilia, IID1275, P. maltophilia IID 1275, read-out: MIC
[18] = Serratia marcescens, read-out: MIC
[19] = Enterobacter cloacae, IID977, E. cloacae IID 977, read-out: MIC
[20] = Providencia alcalifaciens, 93, P. inconstans 93, read-out: MIC
[21] = Pseudomonas aeruginosa, NCTC10490, P. aeruginosa NCTC 10490, read-out: MIC
[22] = Pseudomonas aeruginosa, GN315, P. aeruginosa GN315 (AAC(6')-IV), read-out: MIC
[23] = Proteus vulgaris, IID874, P. vulgaris IID 874, read-out: MIC
[24] = Klebsiella pneumoniae, read-out: MIC
[25] = Escherichia coli, NIHJJC2, E. coli NIHJ JC-2, read-out: MIC
[26] = Burkholderia cepacia, 11D1340, read-out: MIC
[27] = Escherichia coli, read-out: MIC
[28] = Pseudomonas putida, IID5121, P. putida IID 5121, read-out: MIC
[29] = Klebsiella pneumoniae, PCI602, K. pneumoniae PCI 602, read-out: MIC
[30] = Providencia alcalifaciens, GN1554, P. inconstans GN1554 (AAC(2')), read-out: MIC

Compound `CNC1C(O)CC(N)C(OC2OC(C(C)N)CCC2NC(=O)C[C@@H](N)CCCN)C1O` (stereo partly drawn) [2'-N-β-Lysyl 5-de-O-Me KA-6606II, 2'-N-(L-β-lysyl)-5-de-O-methyl-KA-6606II] has an MIC [1] of 100 µg/mL (≈ 224 µM), an MIC (B. subtilis ATCC 6633; B. subtilis ATCC 6633) of 3.13 µg/mL (≈ 7.01 µM) and an MIC (E. coli ML 1410; E. coli ML 1410) of 6.25 µg/mL (≈ 14 µM). It also gave an MIC (S. faecalis Imanari) of 3.13 µg/mL (≈ 7.01 µM), an MIC (S. aureus 209P JC-1) of 0.78 µg/mL (≈ 1.75 µM) and an MIC (P. maltophilia IID 1275; P. maltophilia IID 1275) of 1.56 µg/mL (≈ 3.49 µM). For the same compound, the MIC (S. marcescens NHL) was 3.13 µg/mL (≈ 7.01 µM), the MIC (E. cloacae IID 977; E. cloacae IID 977) was 12.5 µg/mL (≈ 28 µM) and the MIC (P. inconstans 93; P. inconstans 93) was 1.56 µg/mL (≈ 3.49 µM). The MIC (P. aeruginosa NCTC 10490; P. aeruginosa NCTC 10490) was 25 µg/mL (≈ 56 µM), the MIC ([2]; P. aeruginosa GN315 (AAC(6')-IV)) was greater than 100 µg/mL and the MIC (P. vulgaris IID 874; P. vulgaris IID 874) was 25 µg/mL (≈ 56 µM). The MIC [3] was 12.5 µg/mL (≈ 28 µM), the MIC (E. coli NIHJ JC-2; E. coli NIHJ JC-2) was 3.13 µg/mL (≈ 7.01 µM) and the MIC (P. cepacia 11D 1340) was greater than 100 µg/mL. It also gave an MIC (E. coli JR 88 (AAC(3)-I)) of 12.5 µg/mL (≈ 28 µM), an MIC (P. putida IID 5121; P. putida IID 5121) of 25 µg/mL (≈ 56 µM) and an MIC [4] of 50 µg/mL (≈ 112 µM). For the same compound, the MIC (K. pneumoniae PCI 602; K. pneumoniae PCI 602) was 0.78 µg/mL (≈ 1.75 µM), the MIC [5] was greater than 100 µg/mL and the MIC ([6]; P. inconstans GN1554 (AAC(2'))) was 1.56 µg/mL (≈ 3.49 µM). The MIC (E. coli R176 (AAC(3)-II)) was 6.25 µg/mL (≈ 14 µM) and the MIC [7] was 50 µg/mL (≈ 112 µM).

`CNCC1CCC(N)C(OC2C(N)CC(OC)C(NC)C2O)O1` (stereo not drawn) [KA-7038VI, reference compound] showed an MIC [1, 12] greater than 100 µg/mL, an MIC (B. subtilis ATCC 6633; [13]) of 6.25 µg/mL (≈ 18.8 µM) and an MIC [8] greater than 100 µg/mL. The MIC (E. coli ML 1410; [14]) was greater than 100 µg/mL, the MIC (S. faecalis Imanari; [15]) was 100 µg/mL (≈ 301 µM) and the MIC (S. aureus 209P JC-1; [16]) was 25 µg/mL (≈ 75.2 µM). For the same compound, the MIC (P. maltophilia IID 1275; [17]) was greater than 100 µg/mL, the MIC (S. marcescens NHL; [18]) was greater than 100 µg/mL and the MIC (E. cloacae IID 977; [19]) was greater than 100 µg/mL. It also gave an MIC [9] of 100 µg/mL (≈ 301 µM), an MIC (P. inconstans 93; [20]) greater than 100 µg/mL and an MIC [10] greater than 100 µg/mL. The MIC (P. aeruginosa NCTC 10490; [21]) was greater than 100 µg/mL, the MIC [11] was greater than 100 µg/mL and the MIC [2, 22] was greater than 100 µg/mL. It also gave an MIC (P. vulgaris IID 874; [23]) of 50 µg/mL (≈ 150 µM), an MIC [3, 24] greater than 100 µg/mL and an MIC (E. coli NIHJ JC-2; [25]) of 50 µg/mL (≈ 150 µM). For the same compound, the MIC (P. cepacia 11D 1340; [26]) was greater than 100 µg/mL, the MIC (E. coli JR 88 (AAC(3)-I); [27]) was greater than 100 µg/mL and the MIC (P. putida IID 5121; [28]) was greater than 100 µg/mL. It also gave an MIC ([4]; read-out: MIC) greater than 100 µg/mL, an MIC (K. pneumoniae PCI 602; [29]) of 100 µg/mL (≈ 301 µM) and an MIC [5, 12] greater than 100 µg/mL. The MIC [6, 30] was greater than 100 µg/mL, the MIC (E. coli R176 (AAC(3)-II); [27]) was greater than 100 µg/mL and the MIC ([7]; Pseudomonas aeruginosa) was 100 µg/mL (≈ 301 µM).

With `CNC1C(OC)CC(N)C(OC2OC(C(C)N)CCC2NC(=O)C[C@@H](N)CCCN)C1O` (stereo partly drawn) [2'-N-β-Lysyl KA-6606VIII, 2'-N-(L-β-lysyl)-KA-6606VIII] the MIC [1, 12] was 100 µg/mL (≈ 217 µM), the MIC (B. subtilis ATCC 6633; [13]) was 3.13 µg/mL (≈ 6.8 µM) and the MIC (E. coli ML 1410; [14]) was 0.78 µg/mL (≈ 1.69 µM). The MIC (S. faecalis Imanari; [15]) was 1.56 µg/mL (≈ 3.39 µM), the MIC (S. aureus 209P JC-1; [16]) was 0.39 µg/mL (≈ 0.847 µM) and the MIC (P. maltophilia IID 1275; [17]) was 1.56 µg/mL (≈ 3.39 µM). For the same compound, the MIC (S. marcescens NHL; [18]) was 0.2 µg/mL (≈ 0.434 µM), the MIC (E. cloacae IID 977; [19]) was 3.13 µg/mL (≈ 6.8 µM) and the MIC [9] was 0.39 µg/mL (≈ 0.847 µM). For the same compound, the MIC (P. inconstans 93; [20]) was 0.39 µg/mL (≈ 0.847 µM), the MIC [10] was 0.39 µg/mL (≈ 0.847 µM) and the MIC (P. aeruginosa NCTC 10490; [21]) was 6.25 µg/mL (≈ 13.6 µM). The MIC [2, 22] was 25 µg/mL (≈ 54.3 µM), the MIC (P. vulgaris IID 874; [23]) was 12.5 µg/mL (≈ 27.1 µM) and the MIC [3, 24] was 0.78 µg/mL (≈ 1.69 µM). The MIC (E. coli NIHJ JC-2; [25]) was 1.56 µg/mL (≈ 3.39 µM), the MIC (P. cepacia 11D 1340; [26]) was greater than 100 µg/mL and the MIC (E. coli JR 88 (AAC(3)-I); [27]) was 0.78 µg/mL (≈ 1.69 µM). The MIC (P. putida IID 5121; [28]) was 3.13 µg/mL (≈ 6.8 µM), the MIC ([4]; read-out: MIC) was 25 µg/mL (≈ 54.3 µM) and the MIC (K. pneumoniae PCI 602; [29]) was 0.78 µg/mL (≈ 1.69 µM). For the same compound, the MIC [5, 12] was 50 µg/mL (≈ 109 µM), the MIC [6, 30] was 0.2 µg/mL (≈ 0.434 µM) and the MIC (E. coli R176 (AAC(3)-II); [27]) was 0.78 µg/mL (≈ 1.69 µM). It also gave an MIC ([7]; Pseudomonas aeruginosa) of 25 µg/mL (≈ 54.3 µM).

Reference: patent US4487924A, “2'-N-β-Lysyl) aminoglycosides” (Kowa Company, Ltd., priority 1982, dated 1984)
